Literature values, collected in patent US20060193883A1, “Pesticidal treatment materials” (priority 1999, published 2006).

System: house dust mite populations
Details: in vivo

For CC1(C)C(C=C(Cl)Cl)C1C(=O)OCc1cccc(Oc2ccccc2)c1 (centres unmarked) [permethrin], the “effectiveness as long-term acaricides against house dust mite populations” value is given as “highly effective”.
In the case of CC1(C)[C@H](C(=O)O[C@H](C#N)c2cccc(Oc3ccccc3)c2)[C@@H]1C=C(Br)Br [deltamethrin], the “effectiveness as long-term acaricides against house dust mite populations” value is listed as “highly effective”.
